Here are results for two compounds from patent US20240165082A1, “ORALLY ADMINISTERED COMPOSITIONS FOR CANCER TREATMENT” (priority 2021, published 2024).

For orientation: Papp A→B means the apparent permeability from the apical to the basolateral side of a cell layer.

The conditions of data set [1]: oral administration; inferred from Papp of Example 12. The source says:
Previous studies of the drug permeability data in Caco-2 cells for predicting human drug absorption data plotted apparent permeability (Papp) values against the drug fraction absorbed in humans expressed as a percentage of the administered dose (FA). […] (Turco, et al. Toxicology in Vitro, 2010, 13-20).

A short description of data set [2]: in vitro. The conditions noted are these: human, pH 7.4.
Protocol: Phosphate-buffered saline (PBS, Cat. #10010 from ThermoFisher Scientific, Waltham, MA, USA) was adjusted to pH 7.4 and used as the receiver buffer. […] Tissues were received and stored at 4° C. until use. The tissue inserts were transferred to plates containing MATTEK SMI-100 culture medium using sterile technique and placed in a humidified incubator (37±1° C., 5% CO2) overnight for recovery prior to use, according to MATTEK protocols.
The control was PBS, pH 7.4 buffer for baseline endogenous histamine. Reference B was histamine α,α,β,β-d4 dihydrochloride (1 mg/mL) in PBS, pH 7.4. Reference A was a 300 μL dose added to the apical side of the tissue. […] In each trial, a 100 μL sample was immediately collected as the 0-minute donor sample and was not replenished. The pharmaceutical composition, the control, and Reference B were dosed with 200 μL, and 10 μL donor samples and collected at each time point (0, 15, 30, 60, and 120 minutes) without replacement. Six replicates of each treatment were conducted. […] The assay plates were transferred to a humidified incubator (37±1° C., 5% CO2) between sampling time points. […] Upon completion of the study, all samples were stored at −80° C. until analysis by LC-MS/MS. […]
The cumulative receiver concentration of each compound at each time point (Cc) was calculated as the sum of the measured concentration at that time point (Cm) and 0.2/5 of the measured concentrations at the previous time points (a 0.2 mL receiver sample out of the 5 mL total receiver volume was withdrawn and replaced at each time point, except for the final time point which was not replaced).
The Papp for each compound was calculated as follows: Papp=(dCr/dt)×Vr/(A×Cn), where dCr/dt is the slope of the cumulative receiver concentration (in μM) vs. time (t); Vr is the volume of the receiver compartment (5 cm^3); A is the exposed surface area for permeation (0.6 cm^2); and Cn is the nominal concentration in the donor compartment (in μM).
The recovery (%) at the final timepoint for histamine was calculated as follows: Recovery=100×((Vr120×Cr^final)+(Vd^initial×Cd^initial)+(Vd^15×Cd^15)+(Vd^30×Cd^30)+(Vd^60×Cd^60)+(Vd^final×Cd^final))/(Vd×Cn).
The flux was calculated using the following equation: Flux(overall)=dCc/dt×Vr/A; where dCc/dt is the slope of the cumulative receiver concentration (in μM) vs. time (t); Vr is the volume of the receiver compartment (in cm^3); t is the duration of the flux period in the linear range (in minutes); and A is the diffusional surface area of the exposed tissue surface (0.6 cm^2).

As for `Cl.Cl.NCCc1c[nH]cn1` [histamine dihydrochloride], in data set [1], the “absorbed in the small intestine, amount of the administered dosage” value is listed as “greater than 85%”. In data set [2], this compound gave a Papp A→B at 120 min of 18.7 ± 1.5 ×10⁻⁶ cm/s; a Papp A→B at 120 min, 89969 μM of 18.7 ± 1.5 ×10⁻⁶ cm/s; a recovery at 120 min of 93.6%.

Turning to `CC(C)NCC(O)COc1ccc(CC(N)=O)cc1` (centres unmarked) [atenolol], the recovery at 120 min in data set [2] came out at 89.1 ± 5.2%.
